Holding throughout (assay type): in vivo, male Chunky broiler chickens
Assay [1] relates to bacteria belonging to the genus Lactobacillus. In words: Intestinal flora: number of Lactobacillus cells in ileum content of reared broiler chickens. Conditions: ileum content at 24 days old.
Assay [2] relates to Welch bacillus (Clostridium perfringens). Conditions: ileum content at 24 days old, average of stocking densities 11 and 14 individuals/m^2, * = significant vs control (p<0.05).
A short description of assay [3]: Rearing test: uniformity of body weight (coefficient of variation). Conditions: body weights of individual chickens at 42 days old; (standard deviation/average)×100.
A short description of assay [4]: Rearing test: body weight, weight gain, feed intake and feed conversion ratio. Conditions: for Feed conversion ratio: feed intake/weight gain.
The mark [5] stands for this setting: from 0 day old to 42 days old (entire rearing period).
Setting [6] is: from 0 day old to 42 days old (entire rearing period), listed as trehalose group.
Where [7] appears, read: from 35 days old to 42 days old (finishing period).
[8] abbreviates: from 35 days old to 42 days old (finishing period), listed as trehalose group.

SMILES strings stand for the structures. Read-outs that look alike come from different tables or passages of the source. Marks after values point to notes of the source that are not given here.

In the case of `OC[C@H]1O[C@H](O[C@H]2O[C@H](CO)[C@@H](O)[C@H](O)[C@H]2O)[C@H](O)[C@@H](O)[C@@H]1O` [Trehalose group, α,α-trehalose], the “Number of microbial cells, Lactobacillus spp.” value was 10.2 × 10^7 cells/g in assay [1] and 10.2×10^7 cells/g in assay [1] (listed as trehalose group). The “Number of microbial cells, Clostridium perfringens” value in assay [2] is listed as 0.37 × 10^2* cells/g; in assay [2] (listed as trehalose group), 0.37×10^2 cells/g. Moreover, the Coefficient of variation in assay [3] worked out at 7.9%. Further, the Average body weight in assay [4] (0 day old (start of rearing)) came to 41 g; in assay [4] (35 days old) it was 2621 g; in assay [4] (42 days old) it was 3251 g. In addition, the Feed intake in assay [4] (from 0 day old to 35 days old) was found to be 3458 g; in assay [4] (setting [5]), 4756 g; in assay [4] (setting [7]), 1320 g. The Weight gain in assay [4] (from 0 day old to 35 days old) was 2580 g; in assay [4] (setting [5]) it was 3210* g; in assay [4] (setting [6]) it was 3210 g; in assay [4] (setting [7]) it was 630* g; in assay [4] (setting [8]) it was 630 g. Besides, the Feed conversion ratio in assay [4] (from 0 day old to 35 days old) is given as 1.340; in assay [4] (setting [5]) it was 1.482*; in assay [4] (setting [6]), 1.482; in assay [4] (setting [7]) it was 2.095*; in assay [4] (setting [8]), 2.095.

Source of the values: patent US20240041951A1, “METHOD FOR IMPROVING PRODUCTIVITY IN LIVESTOCK AND/OR POULTRY AND METHOD FOR IMPROVING INTESTINAL FLORA IN LIVESTOCK AND/OR POULTRY” (Hayashibara Co., Ltd., priority 2020, published 2024).
